Experiment [1] deals with BS1-driven reporter. As to the kind of experiment: Transactivation of BS1-driven luciferase reporter in 293T cells. Type of experiment: cell-based, human. The source says:
An XbaI-EcoRV fragment containing the entire DMP1 coding sequence is subcloned by blunt end ligation into a SpeI-XbaI fragment of the Rc/RSV vector (Invitrogen, La Jolla Calif.) to enable DMP1 expression in mammalian cells. 6×concatamerized BS1, 8×concatamerized, BS2, or 7×concatamerized M3 oligonucleotides (FIG. 5B) are inserted into the XhoI-SmaI sites of pGL2 (Pfornega) 5′ to a minimal simian virus 40 (SV40) early promoter driving firefly luciferase gene expression. The latter “reporter” plasmid (1 μg) together with increasing amounts of pRc/RSV-DMP1 expression plasmid compensated by decreasing quantities of control pRc/RSV DNA (total of both=2.5 μg) were transfected into 293T cells (1.5×10^6 cells per 60 mm diameter culture dish) by calcium phosphate precipitation (7). Two days later, cells were harvested, washed three times with PBS, and lysed in 1 ml of 25 mM glycylglycine (Sigma), pH 7.8, 15 mM MgSO4, 4 mM EDTA, 1 mM DTT, and 1% Triton X-100. After clearing by centrifugation, 50 μl aliquots were assayed diluted to 350 μl using 15 mM potassium phosphate buffer, pH 7.8, containing 15 mM MgSO4, 4 mM EGTA, 2 mM ATP, 1 mM DTT, and 67 uM luciferin (Sigma). Total light emission was measured for duplicate samples during the initial 20 seconds after luciferin injection with an Optocomp I luminometer (MGM Instruments, Hamden Conn.). […]

Experiment [2] relates to ARF-null MEFs. As to the kind of experiment: BrdU incorporation / cell cycle arrest in ARF-null MEFs. Type of experiment: cell-based, mouse. The settings on record: retroviral infection. The protocol:
BrdU incorporation and immunofluorescence. Wild-type or ARF-null MEFs (4×10^4 cells) were seeded on gelatin-coated coverslips 16 hours before virus infection. Cells were infected three times with empty vector, or vectors expressing murine DMP1, human c-Myc, human E2F-1, or human Ets1. Cells were labeled 36 hours after virus infection with bromodeoxyuridine (BrdU, Sigma) for 14 hours in complete medium. For pulse labeling, MEFs were treated with 2 μM4-HT for 36 hours and labeled with BrdU for three hours at different intervals throughout the inductive phase. Cells were fixed in ice-cold methanol-acetone (1:1) for 10 min at −20° C. and then were stained with affinity-purified antibodies to DMP1 (AF) [Hirai and Sherr, Mol. Cell. […]
Based on the above observations, it was determined as to whether introduction of DMP1 would induce synthesis of the endogenous ARF protein in normal diploid fibroblast strains. […] Although the blot was normalized for protein input, the levels of p19^ARF induced by DMP1 were calculated to be 2-fold higher than those induced by Myc, because fewer cells were productively infected with the DMP1 virus in this experiment (see FIG. 15A).

From patent US6673902B2, “Cyclin D binding factor, and uses thereof” (St. Jude Children's Research Hospital, priority 1996, dated 2004) come the findings set out here.

As to “DMP1: murine cyclin D-associated myb-like transcription factor, 761 amino acids, SEQ ID NO:1”, the “activation of the BS1-driven reporter” value in experiment [1] is listed as 7 fold. The cell cycle arrest entry in experiment [2] was “refractory”.
